pEC50: −log10 of the molar value.
These compounds were tested on HeLa (assay: Cytotoxicity against HeLa cell lines). Conditions: Homo sapiens.
Assay type: functional, cell-based
In the case of COn1c2c(c3ccccc31)C(=O)c1ccccc1C2=O, the pEC50 was 5.80.
In the case of O=C1c2ccncc2C(=O)c2c1[nH]c1ccccc21, the pEC50 was 6.82.
Work on COC(=O)c1ccccc1C(=O)c1cn(OC)c2ccccc12 yielded a pEC50 of under 4.30.
COC(=O)c1ccccc1C(=O)c1c[nH]c2ccccc12 was tested, and the pEC50 was under 4.30.
With COCn1c2c(c3ccccc31)C(=O)c1cnc3ccccc3c1C2=O the pEC50 was 6.38.
O=C1c2ccccc2C(=O)c2c1[nH]c1ccccc21 [BENZOCARBAZOLEDIONE] showed a pEC50 of 6.37.
Work on O=C1c2c[n+]([O-])c3ccccc3c2C(=O)c2[nH]c3ccccc3c21 [CALOTHRIXIN A] yielded a pEC50 of 6.92.
In the case of O=C1c2[nH]c3ccccc3c2C(=O)c2cnc3ccccc3c21 [CALOTHRIXIN B], the pEC50 was 6.62.
CC1=CC(=O)c2ccccc2C1=O [MENADIONE] gave a pEC50 of 5.43.

Source: ChEMBL document CHEMBL1137989, “Synthesis, electrochemistry, and bioactivity of the cyanobacterial calothrixins and related quinones” (J Med Chem, 2004)
